As usually defined, the EC50 is the concentration giving half of the maximal effect.

Square brackets hold non-standard residues; d marks the D form. Peptide text beside a SMILES is read from it. Aib = CC(C)(N)C(=O)O

Four compounds from US11130793B2, “GLP-1/GLP-2 dual agonists” (Zealand Pharma A/S, priority 2016, dated 2021) can be followed below.

One assay addresses T1, human GLP-1 receptor (Homo sapiens, UniProt P43220).
T1 construct: expressed in transfected cells
The experiment in a line: GLP-1 receptor potency assay (cAMP AlphaScreen, HEK293 cells stably expressing GLP-1R). It is filed as cell-based. The note with it: cAMP response, HEK293 cells expressing human GLP-1R; read-out: EC50 GLP-1. The method in brief:
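cAMP accumulation was quantified by AlphaScreen in G418-selected HEK293 cells stably transfected with human GLP-1R cDNA. Concentration-response data were normalized between vehicle and positive control. EC50 and maximal response came from 4PL curve fitting.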
(In Alpha technology, singlet oxygen from a donor bead excites a nearby acceptor bead.)

The target of the next assay is T2, human GLP-2 receptor (Homo sapiens, UniProt O95838, D470N).
T2 sequence (O95838 1-553 D470N): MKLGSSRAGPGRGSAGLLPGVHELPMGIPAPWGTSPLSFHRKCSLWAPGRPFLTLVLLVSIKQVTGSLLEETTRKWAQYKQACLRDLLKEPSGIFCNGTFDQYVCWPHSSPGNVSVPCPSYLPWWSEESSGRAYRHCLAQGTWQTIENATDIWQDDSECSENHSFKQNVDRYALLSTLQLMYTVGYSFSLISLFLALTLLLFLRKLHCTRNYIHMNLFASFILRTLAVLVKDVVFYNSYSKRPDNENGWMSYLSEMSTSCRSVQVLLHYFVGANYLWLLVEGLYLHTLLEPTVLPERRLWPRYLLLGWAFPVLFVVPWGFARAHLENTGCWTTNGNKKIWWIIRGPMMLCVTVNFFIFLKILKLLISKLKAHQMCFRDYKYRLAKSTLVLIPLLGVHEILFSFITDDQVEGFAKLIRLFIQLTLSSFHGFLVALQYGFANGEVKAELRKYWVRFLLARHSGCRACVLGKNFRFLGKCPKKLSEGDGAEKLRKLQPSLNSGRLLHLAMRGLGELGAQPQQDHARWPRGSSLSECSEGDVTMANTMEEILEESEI
Nature of the assay: GLP-2 receptor potency assay (cAMP AlphaScreen, HEK293 cells stably expressing GLP-2R). The note with it: cAMP response, HEK293 cells expressing human GLP-2R. It is filed as cell-based. The method in brief:
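EC50 and maximal response were fitted with a 4PL model after normalization to positive control and vehicle. cAMP accumulation was quantified by AlphaScreen in a stable HEK293 clone transfected with human GLP-2 receptor.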

Assay [1] concerns Normal chow-fed C57BL/6J male mice. The experiment in a line: Effect on fasting glucose and intestinal weight in normal mice. It is filed as in vivo. The note with it: for Small intestinal wet weight: 250 nmol/kg s.c. once daily for 4 days, sacrificed 24 hours after final dosing; for Fasting blood glucose: day 0, fasted mice, after a single s.c. injection, 250 nmol/kg. As for the experimental part: Normal chow-fed C57BL/6J male mice were used. The mice were kept in standard housing conditions, light-, temperature-, and humidity-controlled room (12:12 h light-dark cycle, with lights on at 06.00-18.00 h; 20-22° C.; 50-80% relative humidity). Each dosing group consisted of 6 animals. Mice were dosed once daily with 250 nmol/kg with the test compounds or vehicle for 4 days via subcutaneous administration.
On day 0 mice were fasted and blood glucose levels measured after a single s.c. injection with peptides. Animals were sacrificed 24 hours after final dosing on day 3, and small intestinal wet weights were measured.

T1 sequence (P43220 24-463): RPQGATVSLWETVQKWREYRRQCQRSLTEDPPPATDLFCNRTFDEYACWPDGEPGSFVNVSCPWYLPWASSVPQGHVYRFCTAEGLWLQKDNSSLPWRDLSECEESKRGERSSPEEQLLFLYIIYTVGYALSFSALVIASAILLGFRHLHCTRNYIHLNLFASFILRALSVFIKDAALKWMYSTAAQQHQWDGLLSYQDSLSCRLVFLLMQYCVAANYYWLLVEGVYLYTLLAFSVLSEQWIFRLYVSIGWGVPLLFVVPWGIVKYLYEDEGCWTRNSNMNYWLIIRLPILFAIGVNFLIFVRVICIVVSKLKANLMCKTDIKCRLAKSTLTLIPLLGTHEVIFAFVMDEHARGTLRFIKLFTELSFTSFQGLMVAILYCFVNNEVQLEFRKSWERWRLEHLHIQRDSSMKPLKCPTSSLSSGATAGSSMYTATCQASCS

Regarding `CC[C@H](C)[C@H](NC(=O)[C@H](Cc1ccccc1)NC(=O)[C@H](CC(=O)O)NC(=O)[C@H](CCCNC(=N)N)NC(=O)[C@H](C)NC(=O)[C@H](C)NC(=O)[C@H](CCC(N)=O)NC(=O)[C@H](CCC(=O)O)NC(=O)[C@H](CC(=O)O)NC(=O)[C@H](CC(C)C)NC(=O)[C@@H](NC(=O)[C@@H](NC(=O)[C@H](C)NC(=O)[C@H](CC(C)C)NC(=O)[C@H](CCC(=O)O)NC(=O)[C@H](CO)NC(=O)[C@@H](NC(=O)[C@H](Cc1ccccc1)NC(=O)[C@H](CO)NC(=O)CNC(=O)[C@H](CCC(=O)O)NC(=O)C(C)(C)NC(=O)[C@@H](N)Cc1c[nH]cn1)[C@@H](C)O)[C@@H](C)O)[C@@H](C)CC)C(=O)N[C@@H](C)C(=O)N[C@@H](Cc1c[nH]c2ccccc12)C(=O)N[C@@H](CC(C)C)C(=O)N[C@@H](Cc1c[nH]cn1)C(=O)N[C@@H](C)C(=O)N[C@@H](Cc1c[nH]cn1)C(=O)N[C@@H](CCCCN)C(=O)N[C@H](C(=O)N[C@H](C(=O)N[C@@H](CC(=O)O)C(=O)O)[C@@H](C)O)[C@@H](C)CC` [Compound 22] (H-H[Aib]EGSFTSELATILDEQAARDFIAWLHAHKITD-OH), the EC50 at human GLP-1 receptor came out at 280 pM. At human GLP-2 receptor, this compound yielded an EC50 of 42 pM. In assay [1], the “Small intestinal wet weight” value was determined as 0.82 g and the Fasting blood glucose was determined as 6.18 mM.

On to `CC[C@H](C)[C@H](NC(=O)[C@H](Cc1ccccc1)NC(=O)[C@H](CC(=O)O)NC(=O)[C@H](CCCNC(=N)N)NC(=O)[C@H](C)NC(=O)[C@H](C)NC(=O)[C@H](CCC(N)=O)NC(=O)[C@H](CCC(=O)O)NC(=O)[C@H](CC(=O)O)NC(=O)[C@H](CC(C)C)NC(=O)[C@@H](NC(=O)[C@@H](NC(=O)[C@H](C)NC(=O)[C@H](CC(C)C)NC(=O)[C@H](CCC(=O)O)NC(=O)[C@H](CO)NC(=O)[C@@H](NC(=O)[C@H](Cc1ccccc1)NC(=O)[C@@H](NC(=O)CNC(=O)[C@H](CCC(=O)O)NC(=O)C(C)(C)NC(=O)[C@@H](N)Cc1c[nH]cn1)[C@@H](C)O)[C@@H](C)O)[C@@H](C)O)[C@@H](C)CC)C(=O)N[C@@H](C)C(=O)N[C@@H](Cc1c[nH]c2ccccc12)C(=O)N[C@@H](CC(C)C)C(=O)N[C@@H](CCC(N)=O)C(=O)N[C@@H](C)C(=O)N[C@@H](CCC(N)=O)C(=O)N[C@@H](CCCCN)C(=O)N[C@H](C(=O)N[C@H](C(=O)N[C@@H](CC(=O)O)C(=O)O)[C@@H](C)O)[C@@H](C)CC` [Compound 26] (H-H[Aib]EGTFTSELATILDEQAARDFIAWLQAQKITD-OH), for which, at human GLP-1 receptor, the EC50 stood at 13 pM. Moreover, a half-maximal effect at human GLP-2 receptor (EC50) was put at 190 pM. Further, in assay [1], the “Small intestinal wet weight” value is listed as 0.78 g and the Fasting blood glucose is 5.70 mM.

On to `CC[C@H](C)[C@H](NC(=O)[C@H](CC(C)C)NC(=O)[C@H](Cc1c[nH]c2ccccc12)NC(=O)[C@H](CO)NC(=O)[C@@H](NC(=O)[C@H](Cc1ccccc1)NC(=O)[C@H](CC(=O)O)NC(=O)[C@H](CCCNC(=N)N)NC(=O)[C@H](C)NC(=O)[C@H](C)NC(=O)[C@H](CCC(N)=O)NC(=O)[C@H](CCC(=O)O)NC(=O)[C@H](CC(=O)O)NC(=O)[C@H](CC(C)C)NC(=O)[C@@H](NC(=O)[C@@H](NC(=O)[C@H](C)NC(=O)[C@H](CC(C)C)NC(=O)[C@H](CCC(=O)O)NC(=O)[C@H](CO)NC(=O)[C@@H](NC(=O)[C@H](Cc1ccccc1)NC(=O)[C@@H](NC(=O)CNC(=O)[C@H](CCC(=O)O)NC(=O)C(C)(C)NC(=O)[C@@H](N)Cc1c[nH]cn1)[C@@H](C)O)[C@@H](C)O)[C@@H](C)O)[C@@H](C)CC)[C@@H](C)CC)C(=O)N[C@@H](C)C(=O)N[C@@H](Cc1c[nH]cn1)C(=O)N[C@@H](CCCCN)C(=O)N[C@H](C(=O)N[C@H](C(=O)N[C@@H](CC(=O)O)C(=O)O)[C@@H](C)O)[C@@H](C)CC` [Compound 34] (H-H[Aib]EGTFTSELATILDEQAARDFISWLIAHKITD-OH), for which the EC50 on human GLP-1 receptor came to 5 pM. The half-maximal effective concentration (EC50) on human GLP-2 receptor came out at 49 pM. Also, in assay [1], the “Small intestinal wet weight” value was 0.93 g and the Fasting blood glucose is reported as 5.62 mM.

With `CC[C@H](C)[C@H](NC(=O)[C@H](Cc1ccccc1)NC(=O)[C@H](CC(=O)O)NC(=O)[C@H](CCCNC(=N)N)NC(=O)[C@H](C)NC(=O)[C@H](C)NC(=O)[C@H](CCC(N)=O)NC(=O)[C@H](CCC(=O)O)NC(=O)[C@H](CC(=O)O)NC(=O)[C@H](CC(C)C)NC(=O)[C@@H](NC(=O)[C@@H](NC(=O)[C@H](C)NC(=O)[C@H](CC(C)C)NC(=O)[C@H](CCC(=O)O)NC(=O)[C@H](CO)NC(=O)[C@@H](NC(=O)[C@H](Cc1ccccc1)NC(=O)[C@@H](NC(=O)CNC(=O)[C@H](CCC(=O)O)NC(=O)C(C)(C)NC(=O)[C@@H](N)Cc1c[nH]cn1)[C@@H](C)O)[C@@H](C)O)[C@@H](C)O)[C@@H](C)CC)C(=O)N[C@@H](CC(N)=O)C(=O)N[C@@H](Cc1c[nH]c2ccccc12)C(=O)N[C@@H](CC(C)C)C(=O)N[C@@H](CCCCN)C(=O)N[C@@H](C)C(=O)N[C@@H](Cc1c[nH]cn1)C(=O)N[C@@H](CCCCN)C(=O)N[C@H](C(=O)N[C@H](C(=O)N[C@@H](CC(=O)O)C(=O)O)[C@@H](C)O)[C@@H](C)CC` [Compound 35] (H-H[Aib]EGTFTSELATILDEQAARDFINWLKAHKITD-OH), on human GLP-1 receptor, the EC50 was 6 pM. At human GLP-2 receptor, this compound yielded an EC50 of 48 pM. Besides, in assay [1], the “Small intestinal wet weight” value came out at 0.81 g and the Fasting blood glucose is 5.95 mM.
